Values of other authors in patent publication US20070077220A1, “Stable ascorbic acid compositions” (priority 2005, published 2007).

For `O=C1O[C@H]([C@@H](O)CO)C(O)=C1O` [L-ascorbic acid], the “pK (acid-ionizable hydrogen in water)” value is given as 4.2.
